{
  "source": "patent US20250099491A1",
  "about": "“PREVENTION OR TREATMENT OF CARDIOVASCULAR DISEASES WITH HIGH PENETRATION PRODRUGS OF ASPIRIN AND OTHER NSAIDS” (Techfields Inc., priority 2022, published 2025)",
  "key": {"[1]": {"tested_on": "myocardial infarction in minipigs", "experiment": "Example 20: myocardial infarction efficacy study in minipigs (circumflex coronary artery thrombosis)", "type": "in vivo, minipig", "settings": "twice a day; for infarct volume (myocardial): 28 days after MCA thrombosis", "protocol": "Total 24 male minipigs were used for this study. […] The minipigs were already quarantined and acclimated. Before animal being transferred from holding colony, a physical examination was performed and the acceptability of the animals for the study was evaluated by veterinary. […] [table] […] Under anesthesia, thoracotomy was carried out and the circumflex coronary artery of the heart was exposed. The circumflex coronary artery thrombosis was induced by photochemical reaction. […] Photoirradiation was continued for a 30 min. […] After cutting the femoral artery, thoracotomy was carried out and the heart was removed. […] TTC regent for 5 min. After staining with TTC reagent, the photograph of the heart 5 blocks was taken. All blocks were immersed in 10% formalin neutral buffer solution. The 2nd block appeared large necrotic area was cut sections (thickness: 7-8 μm). Slice was stained with H & E reagent. […] The infarct lesions were defined as a necrotic portion of TTC stained blocks. […] The histopathological alteration (necrosis, inflammation, granulation, etc.) of myocardial infarction was examined using H & E stained slides."}, "[2]": {"tested_on": "rats, minipigs, rabbits, guinea pigs, Ames, CHO-WBL Cells", "experiment": "Nonclinical pharmacology and toxicology battery", "type": "in vivo", "settings": "battery of GLP dermal toxicity, genotoxicity, safety pharmacology, irritation and sensitization studies", "protocol": "A battery of pharmacology and toxicology studies were conducted to support early clinical trials, including a GLP acute dermal maximum tolerated dose study in rats, a GLP acute dermal maximum tolerated dose study in minipigs, a 28-day GLP repeated dermal dose toxicity and toxicokinetics study in rats with 14-day recovery, a 28-day GLP repeated dermal dose toxicity and toxicokinetics study in minipigs with 14-day recovery, a GLP bacterial reverse mutation assay (Ames), a GLP in vitro chromosome aberration assay in CHO-WBL Cells, a GLP in vivo bone marrow micronucleus assay in rats, a behavioral effects in rats using the functional observational battery, a rat respiratory safety pharmacology study, a cardiovascular telemetry study in the unrestrained conscious minipigs, a skin irritation study in rabbits, and a sensitization test in guinea pigs."}, "[3]": {"settings": "high dose 30 mg/kg/time transdermal"}, "[4]": {"settings": "low dose 15 mg/kg/time transdermal"}},
  "data": [
    {"smiles": "CCN(CC)CCOC(=O)c1ccccc1OC(C)=O.Cl", "note": "[Compound-1]", "values": [
      {"measurement": "degeneration of myocardium and myocardial necrosis (histopathology)", "setting": "[1]; [3]", "value": "slight"},
      {"measurement": "infarct volume (myocardial)", "setting": "[1]; [3]", "value": 138, "unit": "mm^3"},
      {"measurement": "degeneration of myocardium and myocardial necrosis (histopathology)", "setting": "[1]; [4]", "value": "slight"},
      {"measurement": "infarct volume (myocardial)", "setting": "[1]; [4]", "value": 177, "unit": "mm^3"},
      {"measurement": "nonclinical safety and tolerability", "setting": "[2]", "value": "safe and generally well tolerated"}
    ]}
  ]
}
